Entries after “also recorded” stand apart in the source; their conditions may differ. Like-named read-outs stand apart in the source and are kept apart here.
How the values were obtained:
[1] = Protein binding analysis (RED), human plasma; type: in vitro ADME; details: 5 μM, RED 4 h
Description: (§1) The protein binding was assessed in plasma of Human, male balb-c mice, male Wistar Han rat, male Gottingen minipig by rapid equilibrium dialysis (RED) devices. After the plasma and buffer phosphate 50 mM pH7.4 were equilibrated at 37° C., the compound was added to plasma to reach a final concentration of 5 μM. An aliquot of plasma was withdrawn immediately. Equilibration under mild agitation was continued for 4 h. The plasma and buffer were sampled and samples were quenched with 4 volumes of acetonitrile and centrifuged. Supernatant was quantified in HPLC/MS/MS to calculate the recovery and the percentage of compound dissolved in the buffer (unbound) and bound to plasma proteins.

[2] = system: 44 targets (binding and enzyme/uptake assays); experiment: CEREP Safety Screen-44; details: 10 μM
Description: An in vitro pharmacology assay was conducted to assess the capability of the compounds to interact with different pharmacological targets when tested at 10 μM in different binding and enzyme/uptake assays. The included targets are indicative of potential effects in major organs and drug-drug interactions.
Compound binding was calculated as a % inhibition of the binding of a radioactively labelled ligand specific for each target. […] […].

[3] = Intrinsic clearance in minipig hepatocytes; type: in vitro ADME, male Göttingen minipig; details: 2.5 μM
Description: (§2) The intrinsic clearance was assessed in cryopreserved Hepatocytes obtained by Human livers donors of mix gender pooled together, male balb-c mouse, male Wistar Han rats and male Göttingen minipig, by looking at the parent compound disappearance. The incubations were performed using a final concentration of viable cells of 1 million/ml (viability above 70%) and test item of 2.5 μM. Incubations were followed up to 2 h. Aliquotes were withdrawn at different time points and reaction quenched with acetonitrile. After centrifugation the supernatant was analyzed by HPLC/MS to quantify the remaining amount of parent in comparison with time 0. The clearance was calculated by fitting the log of the percentage remaining with Graphpad Prism ver.7.

[4] = Kinetic aqueous solubility; type: physicochemical
[5] = Intrinsic clearance in rat hepatocytes; type: in vitro ADME, male Wistar Han rats; details: 2.5 μM
Description: as §2

[6] = Protein binding analysis (RED), rat plasma; type: in vitro ADME, male Wistar Han rat; details: 5 μM, RED 4 h
Description: as §1

[7] = In vivo pharmacokinetic analysis in minipig, iv; set-up: species or system male Göttingen minipigs; details: iv 1 mg/kg
Description: (§3) Three male Göttingen minipigs. Compound was administered intravenously to fed animals at a target dose of 1 mg/kg, dose volume 1 mL/kg, in DMSO: hydroxypropyl-β-cyclodextrin 20% in phosphate buffer 60 mM pH 7 (5:95). Blood samples were collected at various time points. Blood samples were then assayed using a method based upon protein precipitation with acetonitrile followed by LC/MS/MS analysis. Non-compartmental methods were used for pharmacokinetic analysis of blood concentration versus time data.

IL6 signalling in hWB = experiment: hWB assay, IL6; type: cell-based, human; details: Homo sapiens, read-out: hWB assay: IC50 IL6
[8] = Intrinsic clearance in mouse hepatocytes; type: in vitro ADME, male balb-c mouse; details: 2.5 μM
Description: as §2

[9] = Human skin ex vivo: flux through skin and dermis concentration (Franz cells); type: in vitro ADME; details: PG/H2O cream 1 mg/mL
[10] = Thermodynamic solubility PG_H2O pH 6 2/8; type: physicochemical; details: amorphous, no cristalline material available
[11] = system: IL-6 induced Phospho-STAT3 (Tyr705) in TF-1 cells; experiment: In vitro cellular pSTAT3 assay, IL-6 stimulated TF-1 cells; type: cell-based; details: Homo sapiens
[12] = Protein binding analysis (RED), mouse plasma; type: in vitro ADME, male balb-c mice; details: 5 μM, RED 4 h
Description: as §1

[13] = Intrinsic clearance in human hepatocytes; type: in vitro ADME; details: 2.5 μM
Description: as §2

[14] = In vivo pharmacokinetic analysis in rat, iv; set-up: species or system male Wistar Han rat; details: iv 1 mg/kg
Description: as §3, with “One” for “Three”, “Wistar Han rat.” for “Göttingen minipigs.”, “animal” for “animals”, “volume: 2” for “volume 1”, “DMSO/hydroxypropyl-beta-cyclodextrin” for “DMSO: hydroxypropyl-β-cyclodextrin”, “data” for “data.”

[15] = Systemic level in PD/IL6 mouse topical dose response; details: topical 10 mM, PG/Acetone/Transcutol

In the case of `N#CC[C@H](C1CCCC1)n1cc(-c2ncnc3[nH]ccc23)cn1` [Ruxolitinib, reference compound], the hFU [1] is reported as 4%, the “Safety panel (Cerep): 44 targets % inh @ 10 microM, Nb of targets > 50% inh” value [2] is reported as 0/44 and the “Intr. Clear. minipig heps” value [3] is reported as 141 microL/min/10 6 cells. The Kinetic aq sol [4] was 232/ND (no cristalline microM, the “Intr. Clear. rheps” value [5] was 300 microL/min/10 6 cells and the rFU [6] was 13%. The “iv PK minipig: Cl (value in brackets, %)” value [7] was 68%, the IC50 (IL6 signalling in hWB) was 6900 nM and the “Intr. Clear. mheps” value [8] was 150 microL/min/10 6 cells. For the same compound, the “measured flux 6-24 hr” value [9] was 5.3 ng/cm^2/hr, the “Sol PG_H2O pH 6 2/8, amorphous material” value [10] was “material available-1 mM; also recorded: (0.3 mg/mL)-amorphous)” and the IC50 ([11]; TF-1, read-out: Cellular Assay: IC50 IL6) was 8 nM. For the same compound, the IC50 ([11]; TF-1, read-out: Free IC50) was 200 nM, the mFU [12] was 7.7% and the “Intr. Clear. h heps” value [13] was 4.4 microL/min/10 6 cells. For the same compound, the “iv PK rat: Cl (value in brackets, %)” value [14] was 51% and the “PD/IL6 mouse top DR 0.01-10 mM: Systemic level @ 10 mM - 2 hrs” value [15] was 81 nM.

Source: US12606559B2, “JAK inhibitor compounds, methods for synthesizing same and use thereof” (GALDERMA HOLDING SA, priority 2020, dated 2026)
